Measurements taken from publication PMC9527238, “Glutamate and GABAA receptor crosstalk mediates homeostatic regulation of neuronal excitation in the mammalian brain” (Signal Transduction and Targeted Therapy, 2022).
Like-named read-outs stand apart in the source and are kept apart here.

Legend:
[1] = biological target: T1, rat α1β2 GABAARs (Rattus norvegicus, UniProt P62813+P63138); test: Whole-cell patch clamp of GABA-evoked currents, HEK293 cells expressing α1β2; type: cell-based
T1 construct: expressed in transfected cells; host or cells: HEK293
Text: (§1) Co-expression of the α and β subunits is the minimum requirement for a functional recombinant GABAAR expressed in a heterologous cell line such as HEK293, while co-expression of the α, β and γ subunits is required for the recombinant receptor with a full pharmacological profile.[2] We therefore transiently expressed either rat α1β2 or α1β2γ2 subunits in HEK293 cells.
HEK293 cells were transiently transfected with rat GABAAR α1/β2 (a–e) or α1/β2/γ2 (f) subunits. Whole-cell voltage-clamp recordings were performed with a chloride-based intracellular recording solution at a holding membrane potential of −60 mV.
(§2) HEK293 cells were cultured in DMEM (Invitrogen) supplemented with 10% fetal bovine serum. Cells were grown to 40–60% confluence and transiently transfected using Lipofectamine 2000 (Invitrogen) with 1:0.5–1 plasmid/lipid ratio. Cells were transfected with a pBK-CMV expression vector containing a rat recombinant GABAAR α, β or γ subunits. Co-transections were done with a plasmid ratio of 1:1 αβ and 2:2:1 for αβγ subunit combinations, respectively. pcDNA3.1-GFP was also co-transfected along with GABAAR subunits as a transfected marker in order to facilitate the visualization of the transfected cells during electrophysiological experiments. Cells were re-plated on glass coverslips after 15–20 h transfection and were cultured for an additional 15–24 h before whole-cell patch-clamp recordings.
(§3) Whole-cell patch-clamp recordings were performed under voltage-clamp mode using an Axopatch 200B or 1D patch-clamp amplifier (Molecular Devices) on HEK293 cells and cultured neurons. Whole-cell currents were recorded at a holding potential of −60 mV, and signals were filtered at 2 kHz, digitized at 10 kHz (Digidata 1322 A). Recording pipettes (3–5 MΩ) were filled with the intracellular solution that contained (mM): CsCl 140, HEPES 10, Mg-ATP 4, QX-314 5, pH 7.20; osmolarity, 290–295 mOsm. BAPTA (10 mM) was added in the intracellular solution. The coverslips were continuously superfused with the extracellular solution containing (mM): NaCl 140, KCl 5.4, HEPES 10, MgCl2 1.0, CaCl2 1.3, glucose 20, pH 7.4; osmolarity, 305–315 mOsm. […] Dose–response curves were created by fitting data to Hill equation: I = Imax/[1 + (EC50/[A])^n], where I is the current, Imax is the maximum current, [A] is a given concentration of agonist, n is the Hill coefficient. […] All experiments were performed at room temperature.

[2] = biological target: T2, rat α1β2γ2 GABAARs (Rattus norvegicus, UniProt P62813+P63138); test: Whole-cell patch clamp of GABA-evoked currents, HEK293 cells expressing wild-type α1β2γ2; type: cell-based
T2 construct: expressed in transfected cells; host or cells: HEK293
Description: as §1, §2, §3

[3] = Kainic acid-induced seizure; type: in vivo, mouse; conditions: 20 mg/kg i.p.
Description: To test the allosteric potentiation of GABAARs by presynaptically released glutamate under certain physiological conditions, we delivered five trains of four pulses of theta-burst stimulation to increase endogenous glutamate released from the presynaptic glutamatergic terminals, and compared its effect on the pharmacologically isolated eIPSCs (following blockade of both AMPAR and NMDAR-mediated EPSCs) in WT and KI mice.
Kainic acid (KA) was dissolved in sterile saline at the concentration of 20 mg/ml. KA (20 mg/kg, i.p.) or same volume of saline as vehicle control was administered by intraperitoneal injection to induce seizures. Diazepam (20 mg/kg, s.c., obtained from Children’s Hospital of Chongqing Medical University) was injected 30 min before the injection of KA. […] All experiments were performed in accordance with approved institutional animal care guidelines.

[4] = tested on: NMDA receptors; test: NMDA receptor blockade in cultured hippocampal neurons; type: cell-based, rat; conditions: MK-801 10 μM co-applied with NMDA 50 μM through the bath for 3 min
[5] = biological target: T3, α1β2 GABAARs (Rattus norvegicus, UniProt P62813+P63138); test: [3H]glutamate binding assay, plasma membranes of HEK293 cells overexpressing α1 and β2
T3 construct: expressed in transfected cells; host or cells: HEK293
Description: For membrane preparation, transfected or non-transfected HEK293 cells were washed twice with cold PBS and harvested by scraping into 5 ml cold PBS. Cells were then centrifuged at 1200 × g for 12 min at 4 °C and medium was removed. The washing procedure was repeated twice. Then the cell pellet was re-suspended into 1 ml of 50 mM Tris-HCl buffer (pH 7.4, with protease inhibitor) and homogenized using syringes with 18-G, 21-G and 23-G needles.
To separate the membrane, the homogenate were centrifuged for 20 min at 20,000 × g at 4 °C. Then the pellet was re-suspended into 1 ml of 50 mM Tris-HCl buffer, pH 7.4 and centrifuged again. After repeating this procedure for one more time, the pellet was re-suspended into 1 ml of 50 mM Tris-HCl buffer, pH 7.4 and the protein concentration was measured.
To conduct the binding assay, 100 µg membrane enriched preparation was incubated with 40 nM [3H]-Glutamate in a total volume of 0.5 ml in 50 mM Tris-HCl buffer, pH 7.4 for 1 h on ice. […] Then the reaction was terminated by quickly filtering the solution on Whatman filter paper and washing by 3.5 ml Tris-HCl buffer. Radioactivity was measured in a Beckman liquid scintillation counter.

[6] = tested on: native GABAARs; test: GABA-evoked whole-cell currents in cultured hippocampal neurons; type: cell-based, rat
Description: (§4) Cultured hippocampal neurons were prepared from the brains of D18 fetal Wister rats. Tissues were digested with a 0.25% trypsin solution (Invitrogen) for 25 min at 37 °C, and then mechanically dissociated using a fire-polished Pasteur pipette. Next, the cell suspension was centrifuged at 2500 × g for 50 s and the cell pellets were resuspended in DMEM containing 10% Fetal Bovine Serum (FBS; Sigma-Aldrich). Cells were seeded on poly-D-lysine-coated 24-well coverslips at a density of 2.5 × 10^5 cells/well. Cultures were maintained in a humidified incubator with 5% CO2 at 37 °C. After 24 h, plating medium was changed to Neurobasal medium supplemented with B-27 supplement and L-glutamine, and the media changed twice weekly thereafter. Cultured neurons were used for electrophysiological recordings between 10–14 days after plating.
as §3

[7] = tested on: postsynaptic GABAARs; test: mIPSCs in cultured hippocampal neurons; type: cell-based, rat; conditions: AP5 200 μM; TTX 0.5 μM, CNQX 10 μM
Description: (§5) GABAAR-mediated inhibitory processes in the CNS include phasic and tonic inhibitions. The phasic inhibition is primarily mediated by the activation of postsynaptic GABAARs and can be evaluated by recording miniature inhibitory postsynaptic currents (mIPSCs; Fig. 2c).
as §4, with “Cultured neurons were used for electrophysiological recordings between 10–14 days after plating.” left out
(§6) Whole-cell patch-clamp recordings were performed under voltage-clamp mode using an Axopatch 200B or 1D patch-clamp amplifier (Molecular Devices) on HEK293 cells and cultured neurons. Whole-cell currents were recorded at a holding potential of −60 mV, and signals were filtered at 2 kHz, digitized at 10 kHz (Digidata 1322 A). […]

[8] = tested on: extrasynaptic GABAARs; test: GABAAR-mediated tonic currents in cultured hippocampal neurons; type: cell-based, rat; conditions: prior addition of AP5 200 μM; bicuculline 10 μM
Description: as §5
as §4, with “Cultured neurons were used for electrophysiological recordings between 10–14 days after plating.” left out
as §6

[9] = tested on: GABAAR-mediated currents, WT mice; test: Whole-cell recording of CA1 neurons, hippocampal slices of WT mice; type: cell-based, mouse; conditions: AP5 50 µM
Description: (§7) We next determined if glutamate-mediated allosteric potentiation of GABAAR function was impaired in hippocampal slices acutely prepared from postnatal 90-day-old KI mice. Whole-cell recordings of CA1 neurons were performed under voltage clamp configuration at a holding potential of −60 mV.
(§8) Mice were deeply anesthetized with urethane (1.5 g/kg, i.p.) and transcardially perfused with ice cold sucrose hypertonic cutting solution (in mM: KCl 3.0, NaH2PO4.H2O 1.25, NaHCO3 26, Na-vitamin C 0.4, Na-lactate 2.0, Na-pyruvate 2.0, D-glucose 10.0, Sucrose 220, CaCl2 0.1, MgCl2 2, MgSO4 4.0, pH 7.4, 290–300 mOsm/l) prior to decapitation as described previously.[47] After decapitation, the brain was rapidly removed and transferred to the ice cold cutting solution bubbled with 95% O2 and 5% CO2, and acute coronal brain slices (400 μm) were prepared on a Leica vibratome (VT1200S, Germany). All brain slices were placed into a standard artificial cerebral spinal fluid (ACSF) (in mM: NaCl 124, KCl 2.8, NaH2PO4.H2O 1.25, NaHCO3 26, Na-vitamin C 0.4, Na-lactate 2.0, Na-pyruvate 2.0, D-glucose 10.0, CaCl2 2, MgSO4 1.2, pH 7.4, 290–300 mOsm/l) incubated at 35 °C for 2 h prior to recording. Field excitatory postsynaptic potential (fEPSP) recordings were performed under current-clamp mode using HEKA EPC10 patch-clamp amplifier (HEKA Electronic, Lambrecht/Pfalz, Germany). […]

[10] = biological target: T4, GABAAR-mediated currents, β2E181G KI mice (Mus musculus, UniProt P63137, E206G); test: Whole-cell recording of CA1 neurons, hippocampal slices of homozygous β2E181G KI mice; type: cell-based; conditions: AP5 50 µM; homozygous KI slices
T4 construct: from tissue; host or cells: acute hippocampal slices of homozygous β2E181G knock-in mice (C57BL/6J), CA1 neurons
Description: as §7, §8

CN[C@H](CC(=O)O)C(=O)O [NMDA, N-methyl-D-aspartate]
GABA-mediated currents in presence of ligand, compared with currents induced by GABA alone [1]: 267.6%
GABA currents in presence of ligand, compared with GABA alone [2]: 171.7 ± 5.4%

N[C@H](C(=O)O)[C@@H](OCc1ccccc1)C(=O)O [TBOA, threo-β-Benzyloxyaspartic acid]
GABA-mediated currents in presence of ligand, compared with currents induced by GABA alone ([1]; ligand 100 μM, GABA 1 μM): 202.8 ± 18.3%
GABA currents in presence of ligand, compared with GABA alone ([2]; ligand 100 μM each, GABA 1 μM): 159.9 ± 7.8%

C=C(C)[C@H]1CN[C@H](C(=O)O)[C@H]1CC(=O)O [kainic acid]
GABA-mediated currents in presence of ligand, compared with currents induced by GABA alone [1]: 388.2 ± 61.0%
GABA currents in presence of ligand, compared with GABA alone [2]: 188.7 ± 5.5%
latency of kainic acid-induced seizure activity ([3]; WT mice): 189.6 ± 15.2 s
latency of kainic acid-induced seizure activity ([3]; β2E181G KI mice): 161.0 ± 4.0 s

C[C@]12N[C@H](Cc3ccccc31)c1ccccc12 [MK-801]
effect on GABA currents ([1]; MK-801, concentration not given, data not shown): did not affect GABA currents
NMDA receptor blockade [4]: complete and long-lasting NMDA receptor blockade

Cc1onc(O)c1CC(N)C(=O)O (stereo not drawn) [AMPA, α-amino-3-hydroxyl-5-methyl-4-isoxazole-propionate]
GABA-mediated currents in presence of ligand, compared with currents induced by GABA alone [1]: 339.2 ± 38.0%
GABA currents in presence of ligand, compared with GABA alone [2]: 165.8 ± 6.2%

N#Cc1cc2[nH]c(=O)c(=O)[nH]c2cc1[N+](=O)[O-] [CNQX, 6-cyano-7-nitroquinoxaline-2,3-dione]
GABA evoked currents in presence of ligand, compared with GABA alone ([1]; CNQX 10 μM, GABA 1 μM): 107.3 ± 6.5%
effect on GABA-evoked currents ([1]; CNQX 1 mM, data not shown): did not affect GABA-evoked currents
GABA currents in presence of ligand, compared with GABA alone ([2]; CNQX, concentration not given, GABA 1 μM): 105.6 ± 6.5%

N[C@H](CCCP(=O)(O)O)C(=O)O [AP5, D-2-amino-5-phosphonovaleric acid]
GABA-mediated currents in presence of ligand, compared with currents induced by GABA alone ([1]; ligand 100 μM, GABA 1 μM): 254.9 ± 33.0%
GABA currents in presence of ligand, compared with GABA alone ([2]; ligand 100 μM each, GABA 1 μM): 173.3 ± 3.7%
[3H]glutamate binding activity in presence of competitor ([5]; 40 nM [3H]glutamate + 0.4 mM non-radiolabeled competitor): 240.8 ± 36.8 CPM
amplitude of GABA currents, % of the control ([6]; AP5 100 μM bath, GABA 0.5 μM, TTX and CNQX present): 157.7 ± 9.1%
reversal potential of GABA currents (I-V curve) ([6]; AP5 200 µM, GABA 10 μM): without altering the reversal potential
potentiation of GABA currents after NMDA receptor blockade ([6]; after MK-801 10 μM + NMDA 50 μM for 3 min, AP5 200 μM, GABA 10 μM (Fig. S1a)): reversibly potentiated GABA currents
EC50 ([6]; read-out: EC50 of AP5 enhancement of GABA currents, GABA 0.5 μM): 150 ± 27 µM
mIPSC amplitude [7]: 36.6 ± 3.6 pA
mIPSC frequency [7]: 0.90 ± 0.29 Hz
tonic current revealed by bicuculline [8]: 17.28 ± 2.80 pA
GABA-evoked currents relative to baseline [9]: 193.5 ± 27.0%
GABA-evoked currents relative to baseline [10]: 104.6 ± 12.7%

[^3H]glutamate
[3H]glutamate binding activity ([5]; 40 nM [3H]glutamate only, 100 µg membrane, 1 h on ice): 938.2 ± 82.7 CPM
